Measured values reported in PubChem BioAssay (NCI).
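Growth conditions: 96-well plates. Treatment: test compound, 48 hours, 5 concentrations. Analysis: linear interpolation between bracketing concentrations; unreached endpoints set to highest concentration. GI50: concentration for 50% inhibition of growth. TGI denotes the concentration required for complete inhibition of growth.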

Columns and labels:
Assay in all cases: inhibition of tumour cell growth, NCI panel, 48 h
SN12C renal = test system: SN12C renal
MDA-MB-231 breast = test system: MDA-MB-231 breast
OVCAR-5 ovarian = test system: OVCAR-5 ovarian
786-0 renal = test system: 786-0 renal
UACC-62 melanoma = test system: UACC-62 melanoma
ACHN renal = test system: ACHN renal
M14 melanoma = test system: M14 melanoma
MDA-MB-435 = test system: MDA-MB-435

SMILES	TGI (SN12C renal) [µM]	TGI (MDA-MB-231 breast) [µM]	TGI (OVCAR-5 ovarian) [µM]	TGI (786-0 renal) [µM]	TGI (UACC-62 melanoma) [µM]	TGI (ACHN renal) [µM]	TGI (M14 melanoma) [µM]	TGI (MDA-MB-435) [µM]	GI50 (SN12C renal) [nM]	GI50 (MDA-MB-231 breast) [nM]	GI50 (OVCAR-5 ovarian) [nM]	GI50 (UACC-62 melanoma) [nM]	GI50 (ACHN renal) [nM]	GI50 (M14 melanoma) [nM]	GI50 (MDA-MB-435) [nM]
Cc1ccc(S(=O)(=O)NNC(=O)c2cc(C)ccc2NC(=O)C23CC4CC(CC(C4)C2)C3)cc1	> 100	> 100	> 100	57.3	> 100	44.1	> 100	> 100							
COc1cccc(CC(C)NCC(O)c2ccc(O)c(O)c2)c1 (configuration not stated)	83.8	60.1	47.4	> 100	> 100	> 100	> 100	> 100							
O=C1CCC2(CCO1)OCCO2	> 100	> 100	> 100	> 100	> 100	> 100	> 100	> 100							
N#CC(C#N)=C1C(C#N)=C(N)NC12OCCO2	> 100	> 100	> 100	> 100	> 100	> 100	> 100	> 100							
O=C1NC(=O)/C(=C/c2ccc(S(=O)(=O)N/N=C/c3ccc(Cl)cc3)cc2)N1	> 100	> 100	> 100	> 100	> 100	> 100	> 100	> 100							
CC1OC2=N[C@@H]1C(=O)N[C@@H](C(C)C)C1=N[C@H](C(=O)N[C@@H](C(C)C)C3=N[C@H](C(=O)N[C@@H](C(C)C)C4=N[C@H](C(=O)N[C@H]2C(C)C)C(C)O4)C(C)O3)C(C)O1 (some centres not stated)	> 10	> 10	> 10	> 10		> 10	> 10	> 10							
COc1cc2c(cc1OCCCC(=O)Nc1cc(C(=O)Nc3cc(C(=O)Nc4cc(C(=O)NCCCN(C)C)n(C)n4)n(C)n3)n(C)n1)N=CC1CCCN1C2=O (configuration not stated)	42.3	55.5	72.2	> 100	40.6	38.4	95.2	44.9							
CCOC(=O)c1c(N2CCCC2)ncn(-c2ccccc2)c1=S	> 100		> 100	> 100	> 100	> 100	> 100	> 100							
Cc1cc(/C=C\c2ccc3ccccc3[n+]2C)c(O)c2ncccc12	8.95	1.9	6.19		2.62	2.15	1.11	0.523	375	259	829	207	584	167	87.5
O=C(NCc1cccc(C(F)(F)F)c1)c1cc2sccc2nc1C(F)(F)F	> 100	> 100	> 100	73.7	> 100	> 100	> 100	> 100							
CC[N+]1(C)CCC(O)(/C=C/c2ccc(OC)cc2)C(C(=O)/C=C/c2ccc(OC)cc2)C1 (configuration not stated)	> 58.5	> 53.9	44.1	> 25.8	43.8	23.2	30.8	28.2							
Nc1ncnc2c1ncn2C1CCC(COS(N)(=O)=O)C1 (configuration not stated)	> 100	> 100	> 100	> 100	> 100	> 100	> 100	> 100							
O=C(CCN1CCCC1)Nc1ccc2sc3ccccc3c(=O)c2n1	21.3	18.6	19	17.5	17.2	16.3	17.6	17.8							
C/C(=N\NC(=S)N1CCCCC1)c1cccc(C)n1	12.1	16.5	21.1	1.19	0.352	2.67	0.394	16.8							
Cc1ccncc1.F[B-](F)(F)F.[Pt+2].c1ccc(-c2cccc(-c3ccccn3)n2)nc1	> 100	> 100	41.4	46.4	36.5	25.1	13.5	> 81.4							
COc1nc2c(c(=O)n1C)N[C@H]1[C@H](OC(C)=O)[C@@H](OC(C)=O)CO[C@H]1N2	> 100	> 100	> 100	> 100	> 100	> 100	> 100	> 100							
CCOP(=O)(OCC)C(Nc1cccc(F)c1)c1ccccc1 (configuration not stated)	> 100	> 100		> 100	> 100	> 100	> 100	> 100							
COC(=O)[C@H]1[C@@H](C(C)C)O[C@@H](C(C)C)O[C@H]1C(F)(F)F	> 100	> 100	> 100	> 100	> 100	> 100	> 100	> 100							
Cc1cccc2c1[nH]c1[nH]c(=O)[nH]c(=O)c12	> 100	> 100	> 100	> 100	> 100	> 100	> 100	> 100							

SMILES	TGI (SN12C renal) [µM]	TGI (MDA-MB-231 breast) [µM]	TGI (OVCAR-5 ovarian) [µM]	TGI (786-0 renal) [µM]	TGI (UACC-62 melanoma) [µM]	TGI (ACHN renal) [µM]	TGI (M14 melanoma) [µM]	TGI (MDA-MB-435) [µM]	GI50 (SN12C renal) [nM]	GI50 (MDA-MB-231 breast) [nM]	GI50 (OVCAR-5 ovarian) [nM]	GI50 (UACC-62 melanoma) [nM]	GI50 (ACHN renal) [nM]	GI50 (M14 melanoma) [nM]	GI50 (MDA-MB-435) [nM]
CCOC(=O)C1(C(=O)OCC)[C@H](c2ccccc2)C2=NO[C@@H]3CCC[C@H]1[C@H]23	> 100	> 100	> 100	> 100	> 100	> 100	> 100	51.5							
C[C@@H](O)C(=O)N1[C@@H]2CC3CC[C@]2(CS1(=O)=O)C3(C)C	> 100	> 100	> 100	> 100	> 100	> 100	> 100	> 100							
N/N=C1/C2CN3CCN(C2)CC1(c1ccc([N+](=O)[O-])cc1)C3	> 100	> 100	> 100	> 100	> 100	> 100		> 100							
C(=C\c1cccc(/C=C/c2ccccn2)n1)/c1ccccn1	> 100	> 100	> 100	> 100	83.1	> 100	> 100	> 100							
CCOC(=O)C(=[N+]=[N-])C(=O)Nc1nn2nnnc2c2ccccc12	> 100	> 100	> 100	> 100	> 100	> 100	> 100	> 100							
CC1(C)OCC(C(O)C2OC(C)(C)OC2C=O)O1 (configuration not stated)	> 100	> 100	> 100	> 100	> 100	> 100	> 100	> 100							
COc1ccc(/C=c2\[nH]c3nc(=O)c(N4CCOCC4)c(N)n3c2=O)cc1	> 100	> 100	> 100	> 100		> 100	> 100	> 100							
C/C(=C\c1ccccn1)c1ccccn1		> 100	> 100	> 100	> 100	> 100	> 100	> 100							
N#Cc1nc(CCCCCN2C(=O)c3ccccc3C2=O)oc1N	> 100	> 100	> 100	> 100		> 100	> 100	> 100							
COc1cc2nc(-c3ccc4ccccc4c3)[nH]c(=O)c2cc1OC	> 100	> 100	> 100	> 100	> 100	> 100	> 100								
CC(=O)/C(=C/n1c(=S)[nH]c2ccccc21)C(=O)Nc1ccccc1C	> 100	> 100	> 100	> 100		> 100	> 100	> 100							
C/C=C\C(CC(=O)NCCc1cn(C(=O)OCc2ccccc2)c2ccccc12)CC(=O)OC (configuration not stated)		> 100	> 100	> 100	> 100	> 100	> 100	> 100							
O=[N+]([O-])c1ccc2nc(-c3ccccn3)c(-c3ccccn3)nc2c1	> 100		> 100	> 100	> 100	> 100	> 100	> 100							
CO/C(=N\N=C\c1cccc(Cl)c1)c1ccncc1	> 10	> 10	> 10	> 10		> 10	> 10	> 10							
Clc1ccc(N2N=C(c3cccc(Nc4ccncc4)c3)CC2c2ccc3c(c2)OCO3)cc1 (configuration not stated)	3.25	2.64	5.69		3.32	3.13		3.02	1710	1290	2110	1760	1650		1530
Cn1nc2n(c1=O)CCCN2	> 100	> 100	> 100	> 100		> 100		> 100							
Cc1cc(O)c(C(C)C)cc1SC#N		37.9			28.7	30.1		27							
NC(=S)N/N=C\c1ccc(OCc2cccc(COc3ccc(/C=N/NC(N)=S)cc3)n2)cc1	> 100	76	52.1	> 100		> 100	> 100	> 100							
